Values quoted from earlier work as cited in patent publication US5756528A, “Inhibitors of farnesyl-protein transferase” (Merck & Co., Inc., priority 1996, dated 1998).

System: farnesyl-protein transferase
Details: via HMG-CoA reductase inhibition, background literature

| Structure (SMILES) | Indirect inhibition of farnesyl-protein transferase in vivo |
| --- | --- |
| CC[C@H](C)C(=O)O[C@H]1CCC=C2C=C[C@H](C)[C@H](CC[C@@H]3C[C@@H](O)CC(=O)O3)[C@H]21 [compactin] | Indirect inhibition of farnesyl-protein transferase in vivo has been demonstrated |
| CC[C@H](C)C(=O)O[C@H]1C[C@@H](C)C=C2C=C[C@H](C)[C@H](CC[C@@H]3C[C@@H](O)CC(=O)O3)[C@H]21 [lovastatin] | Indirect inhibition of farnesyl-protein transferase in vivo has been demonstrated |
